# According to US10577610B2, “EpCAM aptamers and conjugates thereof” (Deakin University, priority 2015, dated 2020):
# [invdT] = inverted (3'-3') thymidine; {TYE665} = TYE665 fluorescent dye
# Key:
# [1] = target: T1, native EpCAM protein expressed on the cell surface (HEY cells) (Homo sapiens, UniProt P16422); experiment: Flow cytometry binding assay on HEY cells (EpCAM-positive); details: HEY (EpCAM-positive) cells, flow cytometry, n=3
# T1 construct: host or cells: HEY ovarian cancer cells
# T1 sequence (P16422 24-314): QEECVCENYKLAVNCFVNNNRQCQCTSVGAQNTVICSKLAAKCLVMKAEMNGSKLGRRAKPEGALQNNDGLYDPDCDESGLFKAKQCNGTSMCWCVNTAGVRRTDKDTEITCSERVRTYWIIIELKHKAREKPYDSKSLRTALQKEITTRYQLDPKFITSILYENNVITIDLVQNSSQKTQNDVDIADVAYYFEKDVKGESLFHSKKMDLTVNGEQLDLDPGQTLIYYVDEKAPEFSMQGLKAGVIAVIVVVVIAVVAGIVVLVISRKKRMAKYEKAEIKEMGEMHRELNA
# Description: In order to determine the binding affinity (equilibrium dissociation constant KD) of the aptamers. Binding assays were conducted to measure the binding to native EpCAM protein expressed on the cell surface. The aptamers were incubated with the cells at concentrations ranging from 0 nM to 400 nM. These were subsequently analysed by flow cytometry. Aptamers were thawed from storage (−20° C.) prior to use. These were then diluted via serial dilutions with phosphate buffered saline (PBS) in order to achieve the desired concentrations. PBS was supplemented with a MgCl2 concentration appropriate for the aptamer (1 mM for anti-TfR aptamers; 5 mM for conjugate aptamers). Aptamers were then folded into their 3D structures using a thermocycler (85° C. for 5 minutes, slow cooling to 22° C. over 10 minutes and 37° C. for 15 minutes).
# Concurrently, subcultured cells were incubated in blocking buffer (PBS with 10% FCS, 1 mg/mL BSA, 0.1 mg/mL tRNA) for 30 minutes. Following centrifugation, blocking buffer was removed and cells were resuspended in binding buffer (PBS with 10% FCS, 1 mg/mL BSA, 0.1 mg/mL tRNA). Cells (50 μL) were then incubated with the aptamers (50 μL) for 30 minutes at 37° C. at a range of concentrations (0 nM, 20 nM, 40 nM, 60 nM, 80 nM, 100 nM, 200 nM, 400 nM). Following this, cells were washed in 100 μL PBS three times before final resuspension for flow cytometry.
# Aptamers were incubated with the chosen cell lines (bEnd.3 cells, mouse cells positive for TfR; HEY cells, human ovarian cancer cell line positive for EpCAM; and MOLT4 human cells negative for both TfR and EpCAM) at a range of concentrations. Aptamer-bound cells were analysed using a FACS Canto II flow cytometer (Becton Dickinson), counting 10,000 events for each sample, in order to determine the binding affinity of the aptamers. […] The value for the auto fluorescent 0 nM concentration was subtracted from the other figures to account for background fluorescence (Li N et al (2009) Journal of Proteome Research 8(5):2438-48). The resultant values were then used to determine the dissociation constant (KD) via the Graph Pad Prism 3 software. […]
# The binding affinities of aptamers Bi1, Bi2 and Bi3 were determined semi-quantitatively via flow cytometry, using bEnd.3 cells to assess reactivity with TfR, HEY cells to determine EpCAM specificity and the MOLT4 cell line as a negative control. Three independent binding assays were performed for these aptamer against all three cell lines (bEnd.3, HEY and MOLT4). […]
# [2] = Doxorubicin loading efficiency by fluorescence spectroscopy; details: mean±SEM
# Text: The anthracycline class of drugs, including DOX, have fluorescence properties that become quenched after intercalation into DNA (Valentini L et al (1985) II Farmaco edizione scientifica 40(6):377-90. The natural fluorescence of doxorubicin and its subsequent quenching after intercalating with the DNA EpCAM aptamers was utilised for the measurement of the extent of doxorubicin conjugation via Fluorescent Spectroscopy. The conjugation process was studied using different aptamer-doxorubicin molar ratios (0, 0.01, 0.04, 0.08, 0.1, 0.2, 0.3, 0.4, 0.5, and 0.6) and analysed with a fluorescence plate reader based on a standard curve of free doxorubicin.
# Prior to conjugation, aptamers were prepared for application as previously described. DOX was then combined with aptamer in conjugation buffer containing 0.1 M sodium acetate, 0.05 M NaCl, and 5 mM MgCl2 and incubated at 37° C. in an Orbital mixer/incubator (RATEK) for 1 hour with agitation (75 r.p.m). The conjugate was then passed through a Sephadex®G-10 medium column (Sigma-Aldrich) to separate the aptamer: doxorubicin conjugate from free DOX. As DOX has a natural fluorescence which is subsequently quenched following intercalation into double stranded DNA, this characteristic of DOX was exploited to determine the amount of DOX that was intercalated into the double stranded stem region of the conjugate aptamers. After column separation, DOX was extracted from the conjugate yield by adding 150 uL of acetonitrile. This solution was then centrifuged for 5 min at 21,000 g. Eighty microliters of supernatant was removed and fluorescent intensity was quantified with a fluorescent plate reader. A calibration standard curve was prepared with known concentrations of DOX under the same condition
# Data was analysed using Graph Pad Prism 3 and data was reported as mean and standard error of the mean (mean±SEM) unless otherwise stated.
# HT29 and HEY cells = experiment: Confocal microscopy internalisation of EpCAM aptamers into EpCAM positive cells; assay type: cell-based; details: 200 nM, 60 min
# Description: The ability of each DNA EpCAM aptamer to be internalised was established through confocal microscopy. HT29, HEY, K652 and HEK293T were seeded at 8×10^5 cells per well in 8-chamber slide for 24 h in preparation for confocal […]. Cells were incubated with blocking buffer for 60 min, followed by resuspension in binding buffer and containing 200 nM EpCAM aptamer or negative control aptamer and incubated for 60 min at 37° C. Bisbenzimide Hoechst 33342 (3 mg/ml) (Sigma) was added to the cells during the final 10 min of incubation. The aptamer solution was removed and the cells were washed three times for 5 min each in PBS prior to visualisation using a FluoView FV10i laser scanning confocal microscope (Olympus).
# [3] = target: T2, native EpCAM protein expressed on the cell surface (HT29 cells) (Homo sapiens, UniProt P16422); experiment: Flow cytometry binding assay on HT29 cells (EpCAM-positive); details: n=3
# T2 construct: endogenous in cells; host or cells: HT29 cells
# T2 sequence (P16422 24-314): T1 sequence (P16422 24-314)
# Description: (§1) The equilibrium dissociation constant (KD) of each DNA EpCAM aptamer (Ep7, Ep8 and Ep9) was determined by measuring its binding to native EpCAM protein expressed on the cell surface using flow cytometry. HT29, HEY and HEK293T (5×10^5) cells were first incubated with blocking buffer (PBS containing 10% FCS, 1 mg/mL tRNA, 1 mg/mL BSA) for 30 minutes followed by a single wash with binding buffer (PBS containing 10% FCS, 1 mg/mL tRNA, 1 mg/mL BSA) prior to incubation with serial dilutions of concentrations of the respective TYE665-labelled aptamers (0 to 200 nM) in binding buffer for 30 min at 37° C. The cells were washed three times with PBS and resuspended in PBS prior to flow cytometric analysis. The fluorescent intensity was determined using a FACS Canto II flow cytometer (Becton Dickinson), counting 10,000 events for each sample. The mean fluorescent intensity of each concentration was […] the auto fluorescent control and the KD for each aptamer was calculated from the normalised values for fluorescent intensity.
# HEK293T and K562 = experiment: Flow cytometry binding to EpCAM negative cell lines; details: HEK293T and K562, 0 and 100 nM
# Description: as §1
# mouse TfR = target: T3, mouse TfR (Mus musculus, UniProt Q62351); experiment: Flow cytometry binding assay on bEnd.3 cells (TfR-positive); details: bEnd.3 (TfR-positive) cells, n=3
# T3 construct: bEnd.3 cells, mouse cells positive for TfR; host or cells: bEnd.3 mouse cerebral endothelial cells
# T3 sequence (Q62351 whole entry): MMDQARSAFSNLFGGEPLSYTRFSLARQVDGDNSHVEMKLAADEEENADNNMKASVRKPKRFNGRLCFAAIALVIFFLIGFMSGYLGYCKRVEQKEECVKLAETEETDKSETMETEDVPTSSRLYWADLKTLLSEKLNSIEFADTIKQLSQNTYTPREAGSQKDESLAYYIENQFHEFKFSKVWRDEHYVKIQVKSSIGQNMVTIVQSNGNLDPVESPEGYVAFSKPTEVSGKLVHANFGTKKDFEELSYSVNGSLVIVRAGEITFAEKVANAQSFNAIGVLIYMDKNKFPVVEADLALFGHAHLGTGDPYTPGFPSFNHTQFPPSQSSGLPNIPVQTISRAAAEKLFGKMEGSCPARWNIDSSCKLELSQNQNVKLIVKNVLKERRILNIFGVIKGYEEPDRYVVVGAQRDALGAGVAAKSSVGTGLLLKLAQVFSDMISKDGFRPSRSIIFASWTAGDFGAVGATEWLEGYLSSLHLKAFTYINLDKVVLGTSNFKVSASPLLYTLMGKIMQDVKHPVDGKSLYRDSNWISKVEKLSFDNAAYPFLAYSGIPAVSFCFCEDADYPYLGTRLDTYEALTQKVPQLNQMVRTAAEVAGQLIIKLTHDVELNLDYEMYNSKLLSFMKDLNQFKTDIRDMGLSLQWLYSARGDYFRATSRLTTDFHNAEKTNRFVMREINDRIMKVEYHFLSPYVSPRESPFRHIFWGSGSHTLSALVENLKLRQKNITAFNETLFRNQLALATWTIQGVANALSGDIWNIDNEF
# Description: In order to determine the binding affinity (equilibrium dissociation constant KD) of the aptamers. Binding assays were conducted to measure the binding to native EpCAM protein expressed on the cell surface. The aptamers were incubated with the cells at concentrations ranging from 0 nM to 400 nM. These were subsequently analysed by flow cytometry. Aptamers were thawed from storage (-20° C.) prior to use. These were then diluted via serial dilutions with phosphate buffered saline (PBS) in order to achieve the desired concentrations. PBS was supplemented with a MgCl2 concentration appropriate for the aptamer (1 mM for anti-TfR aptamers; 5 mM for conjugate aptamers). […] Concurrently, subcultured cells were incubated in blocking buffer (PBS with 10% FCS, 1 mg/mL BSA, 0.1 mg/mL tRNA) for 30 minutes. Following centrifugation, blocking buffer was removed and cells were resuspended in binding buffer (PBS with 10% FCS, 1 mg/mL BSA, 0.1 mg/mL tRNA). Cells (50 μL) were then incubated with the aptamers (50 μL) for 30 minutes at 37° C. at a range of concentrations (0 nM, 20 nM, 40 nM, 60 nM, 80 nM, 100 nM, 200 nM, 400 nM). Following this, cells were washed in 100 μL PBS three times before final resuspension for flow cytometry. Aptamers were incubated with the chosen cell lines (bEnd.3 cells, mouse cells positive for TfR; HEY cells, human ovarian cancer cell line positive for EpCAM; and MOLT4 human cells negative for both TfR and EpCAM) at a range of concentrations. Aptamer-bound cells were analysed using a FACS Canto II flow cytometer (Becton Dickinson), counting 10,000 events for each sample, in order to determine the binding affinity of the aptamers. […] The value for the auto fluorescent 0 nM concentration was subtracted from the other figures to account for background fluorescence (Li N et al (2009) Journal of Proteome Research 8(5):2438-48). […] The binding affinities of aptamers TfR1, TfR2, […] determined semi-quantitatively via flow cytometry, using bEnd.3 mouse cerebral endothelial cells as a Tf R-positive cell line and MOLT4 acute lymphoblastic leukaemia cells-which express the human TfR, but not the mouse TfR (Sutherland R et al (1981) PNAS 78(7):4515-9)-as a negative control. Three independent binding assays were performed for each aptamer against each cell line. […] Three independent binding assays were performed for these aptamer against all three cell lines (bEnd.3, HEY and MOLT4).
substance,measurement,setting,value
"Ep7: truncated DNA EpCAM aptamer derived from SYL3C, SEQ ID NO:9 (ACAGAGGTTGCGTCTG; DNA, [invdT] at 3' end, 5' {TYE665}, backbone not given here)",Kd,[1],248 ± 82.2 nM
same,Molar ratio aptamer:dox,[2],0.42 ± 0.11
same,Internalisation by EpCAM positive cells,HT29 and HEY cells,internalised
same,Kd,[3],11 ± 2.79 nM
same,Binding to EpCAM negative cell lines,HEK293T and K562,did not bind
"TfR2: version of TfR1 with scrambled binding loop sequence, SEQ ID NO:5 (DNA GCGTGGGCCCACGC; DNA, backbone not given here; further chemistry not fully specified)",Kd,mouse TfR,525 ± 161 nM
"Ep9: truncated DNA EpCAM aptamer derived from SYL3C, SEQ ID NO:12 (GGGGTTGGCCCC; DNA, 5' {TYE665}, 3' [invdT], backbone not given here)",Kd,[1],266 ± 121 nM
same,Molar ratio aptamer:dox,[2],0.35 ± 0.06
same,Internalisation by EpCAM positive cells,HT29 and HEY cells,internalised
same,Kd,[3],31.8 ± 7.65 nM
same,Binding to EpCAM negative cell lines,HEK293T and K562,did not bind
"Ep8: truncated DNA EpCAM aptamer derived from SYL3C, SEQ ID NO:11 (CCCACGTTGTCATGGG; DNA, 5' {TYE665}, 3' [invdT], backbone not given here)",Kd,[1],696 ± 486 nM
same,Molar ratio aptamer:dox,[2],0.38 ± 0.06
same,Internalisation by EpCAM positive cells,HT29 and HEY cells,internalised
same,Kd,[3],6.19 ± 2.24 nM
same,Binding to EpCAM negative cell lines,HEK293T and K562,did not bind
"5′ CACTACAGAGGTTGCGTCTGTCCCACGTTGTCATGGGGGGTTGGCCTG 3′ (CACTACAGAGGTTGCGTCTGTCCCACGTTGTCATGGGGGGTTGGCCTG; listed as DNA, chemistry not fully specified) [Full length EpCAM aptamer, reference compound]",Kd,[1],495 ± 147 nM
same,Molar ratio aptamer:dox,[2],0.53 ± 0.13
same,Kd,[3],9 ± 1.68 nM
"Scr Ex Ep7: scrambled extended Ep7 aptamer with randomly selected base pairs in the binding loop, SEQ ID NO:14 (CGCGCGCCGCATTCCTTTTGCGGCGCGCG; DNA, 5' {TYE665}, 3' [invdT], backbone not given here)",Kd,[1],521 ± 272 nM
same,Molar ratio aptamer:dox,[2],1.01 ± 0.01
same,Internalisation by EpCAM positive cells,HT29 and HEY cells,not internalised
"Ex Ep7: extended Ep7 aptamer with the same binding loop as Ep7, SEQ ID NO:13 (CGCGCGCCGCAGGTTGCGTGCGGCGCGCG; DNA, 5' {TYE665}, 3' [invdT], backbone not given here)",Kd,[1],63.7 ± 14.4 nM
same,Molar ratio aptamer:dox,[2],1.17 ± 0.02
same,Internalisation by EpCAM positive cells,HT29 and HEY cells,internalised
"TfR1: truncated fourteen nucleotide DNA aptamer against mouse TfR, SEQ ID NO:4 (GCGTGTGCACACGC; DNA, backbone not given here; further chemistry not fully specified)",Kd,mouse TfR,5760 ± 7120 nM
